Test results reported in patent US20120128788A1, “COLLAGEN PRODUCTION ENHANCER” (SOFSERA CORPORATION, priority 2009, published 2012).
Values joined by “and” are separate entries in the source; they are usually repeats but may differ in a detail not shown here. Identical values can stand only once.

Test system: Fibroblasts of a normal human
Assay: Test for determining activity of fibroblast to enhance type I collagen production (ELISA of culture medium)
Format: cell-based
Settings: positive control, 25 μM, 24 h, n=6
Description: Fibroblasts of a normal human were cultured for 24 hours in 0.5% FBS-DMEM culture medium containing the test sample, and the amount of collagen in the culture medium was quantified by ELISA. The test was carried out by repeating six times for each condition (n=6). As a positive control (P.C.), magnesium ascorbyl phosphate (VCPMg) was used. The test samples employed were the calcined hydroxyapatite that is produced in the Production Example 1 and the non-calcined hydroxyapatite that is used in the Production Example 2.

SMILES: O=C1O[C@H]([C@@H](O)CO)C([O-])=C1OP(=O)([O-])[O-].O=C1O[C@H]([C@@H](O)CO)C([O-])=C1OP(=O)([O-])[O-].[Mg+2].[Mg+2].[Mg+2] [VC-PMg, magnesium ascorbyl phosphate]
- Collagen Mean ± SD: 24.28 ± 1.06 μg/mg protein and 19.75 ± 1.11 μg/mg protein
